How the values were obtained:
[1] = system: Arabidopsis MAP kinase; settings: tobacco cell extract, protoplasts treated with 2,4-D; cited from earlier work
[2] = system: 35S::PID plants; experiment: Root growth in response to exogenous auxin in 35S::PID plants (selected on kanamycin plates with NAA); format: in vivo, Arabidopsis; settings: for Lateral roots / Primary root length: mean ± standard deviation
Procedure: (§1) Plants were grown in florescent light under long-day conditions (16 hours light, 8 hours dark). Wild type was Columbia. Transgenic plants were generated by vacuum infiltration (Bechtold et al. (1993) C. R. Acad. Sci. 316:1194-1199). For root gravitropism experiments, seeds were grown on vertically oriented 1/2×MS plates at 24° C.
The failure of 35S::PID plants to develop lateral roots in response to exogenous auxin can be explained by defects in either auxin uptake or response. To distinguish between these possibilities, 35S: PID plants was selected on plates containing kanamycin and 0, 0.1, 1.0 or 10.0 μM NAA.

[3] = system: 35S::PID T2 plants; experiment: Lateral root formation of 35S::PID T2 plants grown on plates supplemented with NAA; format: in vivo, Arabidopsis; settings: 10 days on 0.1 μm NAA
Procedure: as §1
To determine whether the loss of lateral root formation in 35::PID plants could be bypassed by exogenous auxin, T2 plants were grown on plates supplemented with the synthetic auxin-analog NAA ([…]). […] As in the previous experiment, there was a perfect correlation between loss of lateral root formation and agravitropic root growth.

SMILES | Effectiveness of MAP kinase phosphorylation by extract of treated protoplasts versus extracts from auxin-starved cultures [1] | Lateral root growth at very high NAA concentrations ([2]; 35S::PID plants) | Primary root elongation with increasing NAA concentration ([2]; 35S::PID plants, 0, 0.1, 1.0 or 10.0 μM NAA) | Lateral roots ([2]; 35S::PID plants, [NAA] 0.1 μM) | Primary root length ([2]; 35S::PID plants, [NAA] 0.1 μM) [mm] | Lateral roots ([2]; 35S::PID plants, [NAA] 1 μM) | Primary root length ([2]; 35S::PID plants, [NAA] 1 μM) [mm] | Lateral roots ([2]; 35S::PID plants, [NAA] 10 μM) | Primary root length ([2]; 35S::PID plants, [NAA] 10 μM) [mm] | Bypass of the block in lateral root formation caused by PID overexpression ([3]; T2 plants) | Average number of lateral roots in seedlings that produced lateral roots ([3]; T2 progeny of 35S::PID, 11 of 37 germinated seedlings (range 18-31), remaining 26 produced none)
O=C(O)COc1ccc(Cl)cc1Cl [2,4-D] | three to four-fold more effective | – | – | – | – | – | – | – | – | – | –
O=C(O)Cc1ccc2ccccc2c1 [NAA, β-napthaleneacetic acid] | – | still inhibited | progressively inhibited | 0.1 ± 0.3 | 11.6 ± 5.9 | 0.1 ± 0.3 | 6.0 ± 3.1 | 0.7 ± 1.2 | 1.4 ± 0.5 | did not overcome the block in lateral root formation | 24

Source: US6632669B2, “Plant kinases and methods of modulation of their activity in plants” (The Salk Institute for Biological Studies, priority 1999, dated 2003)
